≈ marks a conversion by molar mass, not a printed value. Read-outs that look alike come from different tables or passages of the source.
What was measured:
[1] = system: S. aureus MRSA-32 LNZR; assay: MIC determination, linezolid resistant S. aureus MRSA-32 LNZR; type: cell-based; details: Staphylococcus aureus
Protocol: (§1) Infecting doses of organisms given by intraperitoneal route in 5% hog gastric mucin were 10^3-10^4 CFU (colony forming units)/animal for SPN 6303 and 10^8 CFU/animal for MRSA-32. In case of MRSA-32, Linezolid was administered by oral route, 1 and 4 h post infection, BID (twice a day) for 1 day and for SPN 6303 BID for 2 days. […] MICs of Methicillin Resistant Staphylococcus aureus-32 Linezolid resistant (MRSA-32 LNZR), S. pneumoniae 744 Linezolid resistant (SPN 744 LNZR) and parent Linezolid sensitive strains MRSA-32 and SPN 6303 were determined for Linezolid by NCCLS agar dilution method.
(§2) Cultures were further diluted 1:10 in Mueller Hinton broth. Using Denley's mutipoint inoculator, 10^4 cells were deposited on Mueller Hinton agar (Difco) containing range of 2 fold dilutions of test compounds. […] MIC is defined as minimum drug concentration that inhibits test organisms. For determining MIC of test compounds against Streptococcus pneumoniae, Mueller Hinton agar containing 5% sheep blood was employed.

[2] = system: MRSA 032; assay: MIC determination, linezolid sensitive MRSA 032 (MRSA-32); type: cell-based; details: Staphylococcus aureus
Protocol: as §1, §2

[3] = system: SPN 744 LNZR; assay: MIC determination, linezolid resistant SPN 744 LNZR; type: cell-based; details: Streptococcus pneumoniae
Protocol: as §1, §2

[4] = system: Enterococcus faecalis 416 strain; assay: Killing effect study (bactericidal vs bacteriostatic activity); type: cell-based; details: initial count 10^6 CFU/ml; for Final Count (112 h): E. faecalis 416, 5 mcg/ml compound, Table 4
Protocol: The initial inoculum was adjusted to 10^6 CFU (colony forming units) per ml. The flasks were kept on shaker in close cabinet at 35° C. Aliquots were drawn at 112 hours and cell count was determined to assess the extent of loss in viability.

[5] = system: Enterococcus faecalis 416; assay: Mutant Prevention Concentration (MPC) determination; type: cell-based; parameters: unit not given here; details: E. faecalis 416, 10^9 CFU/plate, TSA, 48 hours at 35° C.
Protocol: Clinical isolate Enterococcus faecalis 416 was spirally plated on Tryptic Soya agar (TSA) plate containing various 2 fold dilutions each of a representative compound of the invention and Linezolid so as to give 10^9 CFU/plate. After incubation at 35° C. for 48 hours, the CFU on each plate was determined. MPC is defined as minimum concentration of drug that prevents mutant colonies on respective antibiotic containing plate.

[6] = system: E. faecium 367 LNZR; assay: MIC determination, linezolid resistant E. faecium 367 LNZR; type: cell-based; details: Enterococcus faecium
Protocol: (§3) E. faecium ATCC 19434 strain at a cell density of 10^6/ml was inoculated in Mueller Hinton broth medium containing Linezolid at a concentration of 5 and 7.5 mcg/ml. The stationary culture was incubated at 37° C. and inspected at every 24 hours to assess the formation of turbidity due to the onset of bacterial growth. […] A 50 microliter sample of turbid flask was plated on Mueller Hinton agar medium incorporated with linezolid at 7.5 mcg/ml. The agar plates were incubated for 48 hours at 37° C. for the formation of discrete colonies of linezolid-resistant strain of E. faecium (E. faecium 367 LNZR). MICs of resistant mutant E. faecium 367 LNZR and parent strain E. faecium ATCC 19434 were determined for linezolid by NCCLS method.
as §2

[7] = system: Enterococcus faecalis 416 strain; assay: Propensity to resistance development (resistant colonies per plate); type: cell-based; details: E. faecalis 416 at 10^8 CFU, compound concentration 5 mcg/ml, 48 hours at 35° C.
Protocol: Enterococcus faecalis 416 strain at 10^8 CFU density level was spirally plated on Mueller Hinton agar containing 5 mcg/ml each of linezolid and representative compound of the invention. Plates were incubated at 35° C. for 48 hours and number of resistant colonies developed in presence of respective compounds were counted by automated counter.

[8] = system: SPN 49619; assay: MIC determination, linezolid sensitive SPN 49619; type: cell-based; details: Streptococcus pneumoniae; linezolid sensitive strain, Table 3
[9] = system: linezolid-resistant S. pneumoniae; details: Adis R&D Insight report Document 013296; cited from earlier work
[10] = system: E. faecium ATCC 19434; assay: MIC determination, parent strain E. faecium ATCC 19434; type: cell-based; details: Enterococcus faecium, ATCC19434; Linezolid sensitive E. faecium ATCC 19434, NCCLS method
Protocol: as §3

[11] = system: MRSA 032 LR; assay: MIC determination, linezolid-resistant mutant MRSA 032 LR; type: cell-based; details: Staphylococcus aureus, read-out: Linezolid MIC
[12] = system: S. pneumoniae ATCC 6303 LR; assay: MIC determination, linezolid-resistant mutant S. pneumoniae ATCC 6303 LR; type: cell-based; details: Streptococcus pneumoniae, ATCC6303, read-out: Linezolid MIC
[13] = system: MRSA-32 LNZR; assay: ED50 in mouse systemic infection model, MRSA-32 LNZR; type: in vivo
[14] = system: MRSA-32; assay: ED50 in mouse systemic infection model, MRSA-32; type: in vivo; details: MRSA-32 parent strain
Protocol: as §1

[15] = system: SPN 744 LNZR; assay: ED50 in mouse systemic infection model, SPN 744 LNZR; type: in vivo
[16] = system: S. aureus Smith LR; assay: MIC determination, linezolid-resistant mutant S. aureus Smith LR; type: cell-based; details: Staphylococcus aureus, read-out: Linezolid MIC
[17] = system: S. pneumoniae ATCC 6303; assay: MIC determination, linezolid sensitive S. pneumoniae ATCC 6303 (SPN 6303); type: cell-based; details: Streptococcus pneumoniae, ATCC6303
Protocol: as §1

[18] = system: S. aureus Smith; assay: MIC determination, S. aureus Smith; type: cell-based; details: Staphylococcus aureus, read-out: Linezolid MIC
[19] = system: SPN 6303; assay: ED50 in mouse systemic infection model, SPN 6303; type: in vivo; details: SPN 6303 parent strain
Protocol: as §1

[20] = 24 h, read-out: MIC MRSA 32 LNZR
[21] = read-out: MIC E. faecium 367 LNZR

| SMILES | MIC [1, 20] [µg/mL] | MIC ([2]; read-out: MIC MRSA 32) [µg/mL] | MIC ([3]; read-out: MIC SPN744 LNZR) [µg/mL] | Final Count (112 h) [4] | MPC [5] | MIC [6, 21] [µg/mL] | No. of colonies/plate [7] | MIC [8] [µg/mL] | also measured |
| --- | --- | --- | --- | --- | --- | --- | --- | --- | --- |
| C#CCC(C#N)=C1CCN(c2ccc(N3C[C@H](CNC(C)=O)OC3=O)cc2F)CC1 [Example 96, (S)-N-{3-[4-(4-(1-cyano-3-yne-butylidene)-piperidin-1-yl)-3-fluorophenyl]-2-oxo-oxazolidin-5-ylmethyl}-acetamide] | 12.5 (≈ 30.5 µM) | 0.8 (≈ 1.95 µM) | 6.25 (≈ 15.2 µM) | <10^2 CFU/ml | 6.25 | 3.12 (≈ 7.6 µM) | 0 | 0.8 (≈ 1.95 µM) | – |
| CC(=O)NC[C@H]1CN(c2ccc(N3CCC(=CC#N)CC3)cc2)C(=O)O1 [Example 3, (S)-N-{3-[4-(4-cyanomethylidene-piperidin-1-yl)-phenyl]-2-oxo-oxazolidin-5-ylmethyl}-acetamide] | 25 (≈ 70.5 µM) | 1.56 (≈ 4.4 µM) | 12.5 (≈ 35.3 µM) | 10^6 CFU/ml | 12.5 | 25 (≈ 70.5 µM) | 0 | 0.8 (≈ 2.26 µM) | – |
| CC(=O)NC[C@H]1CN(c2ccc(N3CCC(=CC#N)CC3)c(F)c2)C(=O)O1 [Example 9, (S)-N-{3-[4-(4-cyanomethylidene-piperidin-1-yl)-3-fluorophenyl]-2-oxo-oxazolidin-5-ylmethyl}-acetamide] | – | – | – | 10^3 CFU/ml | 6.25 | – | 0 | – | – |
| CC(=O)NC[C@H]1CN(c2ccc(N3CCC(=C(C)C#N)CC3)c(F)c2)C(=O)O1 [Example 74, (S)-N-{3-[4-(4-(1-cyanoethylidene)-piperidin-1-yl)-3-fluorophenyl]-2-oxo-oxazolidin-5-ylmethyl}-acetamide] | 25 (≈ 64.7 µM) | – | 6.25 (≈ 16.2 µM) | – | – | 6.25 (≈ 16.2 µM) | 0 | – | – |
| N#CC=C1CCN(c2ccc(N3C[C@H](CNC(=O)C(Cl)Cl)OC3=O)cc2F)CC1 [Example 32, (S)-N-{3-[4-(4-cyanomethylidene-piperidin-1-yl)-3-fluorophenyl]-2-oxo-oxazolidin-5-ylmethyl}-dichloroacetamide] | 12.5 (≈ 28.3 µM) | 0.8 (≈ 1.81 µM) | 6.25 (≈ 14.2 µM) | – | 6.25 | 6.25 (≈ 14.2 µM) | 0 | 0.8 (≈ 1.81 µM) | – |
| O=C([C@@H](O)CO)N1CC=C(c2c(F)cc(N3C[C@H](COc4ccon4)OC3=O)cc2F)CC1 [AZD 2563] | – | – | – | – | – | – | – | – | activity against linezolid-resistant S. pneumoniae [9]: ineffective |
| N#CC=C1CCN(c2ccc(N3C[C@H](CNC(=O)CCl)OC3=O)cc2F)CC1 [Example 31, (S)-N-{3-[4-(4-cyanomethylidene-piperidin-1-yl)-3-fluorophenyl]-2-oxo-oxazolidin-5-ylmethyl}-chloroacetamide] | 12.5 (≈ 30.7 µM) | 0.8 (≈ 1.97 µM) | 12.5 (≈ 30.7 µM) | – | – | 6.25 (≈ 15.4 µM) | 0 | 0.8 (≈ 1.97 µM) | – |
| CC(=O)NC[C@H]1CN(c2ccc(N3CCOCC3)c(F)c2)C(=O)O1 [Linezolid, reference compound] | > 25 | 1.56 (≈ 4.62 µM) | 25 (≈ 74.1 µM) | 10^8 CFU/ml | 12.5 | > 25 | 1.2 × 10^2 | 0.8 (≈ 2.37 µM) | MIC [10]: 1.56 µg/mL (≈ 4.62 µM); MIC [1]: 50 µg/mL (≈ 148 µM); MIC [11]: 25 µg/mL (≈ 74.1 µM); MIC [2]: 1.56 µg/mL (≈ 4.62 µM); MIC ([2]; read-out: Linezolid MIC): 1.56 µg/mL (≈ 4.62 µM); MIC [3]: 25 µg/mL (≈ 74.1 µM); MIC [12]: 25 µg/mL (≈ 74.1 µM); final count after killing effect study ([4]; E. faecalis 416, 5 mcg/ml): 10^9 CFU/ml; ED50 [13]: 100 mg/kg; ED50 [14]: 5 mg/kg; ED50 [15]: > 200 mg/kg; MIC [16]: 50 µg/mL (≈ 148 µM); MIC ([17]; S. pneumoniae ATCC 6303, Table 1, read-out: Linezolid MIC): 0.8 µg/mL (≈ 2.37 µM); MIC ([17]; parent Linezolid sensitive SPN 6303, NCCLS agar dilution method, read-out: MIC): 0.8 µg/mL (≈ 2.37 µM); MIC [6]: 25 µg/mL (≈ 74.1 µM); MIC [18]: 1.56 µg/mL (≈ 4.62 µM); ED50 [19]: 75 mg/kg |
| N#CC=C1CCN(c2ccc(N3C[C@H](CNC(=S)CO)OC3=O)cc2F)CC1 [Example 47, (S)-N-{3-[4-(4-cyanomethylidene-piperidin-1-yl)-3-fluorophenyl]-2-oxo-oxazolidin-5-ylmethyl}-2-hydroxythioacetamide] | – | 0.8 (≈ 1.98 µM) | – | – | – | – | 0 | 0.4 (≈ 0.989 µM) | – |
| N#CC=C1CCN(c2ccc(N3C[C@H](CNC(N)=S)OC3=O)cc2F)CC1 [Example 51, (S)-N-{3-[4-(4-cyanomethylidene-piperidin-1-yl)-3-fluorophenyl]-2-oxo-oxazolidin-5-ylmethyl}-thiocarbamide] | 3.12 (≈ 8.01 µM) | 0.4 (≈ 1.03 µM) | 3.12 (≈ 8.01 µM) | <10^2 CFU/ml | 1.56 | 1.56 (≈ 4.01 µM) | 0 | 0.2 (≈ 0.514 µM) | – |
| CC(=S)NC[C@H]1CN(c2ccc(N3CC=C(CC#N)CC3)c(F)c2)C(=O)O1 [Example 160, (S)-N-{3-[4-(4-cyanomethyl-3,4-dehydropiperidin-1-yl)-3-fluorophenyl]-2-oxo-oxazolidin-5-ylmethyl}-thioacetamide] | 6.25 (≈ 16.1 µM) | 0.4 (≈ 1.03 µM) | 3.12 (≈ 8.03 µM) | <10^2 CFU/ml | – | – | 0 | 0.2 (≈ 0.515 µM) | – |
| COC(=S)NC[C@H]1CN(c2ccc(N3CCC(=CC#N)CC3)c(F)c2)C(=O)O1 [Example 46, (S)-N-{3-[4-(4-cyanomethylidene-piperidin-1-yl)-3-fluorophenyl]-2-oxo-oxazolidin-5-ylmethyl}-methylthiocarbamate] | 6.25 (≈ 15.5 µM) | 0.2 (≈ 0.494 µM) | 6.25 (≈ 15.5 µM) | <10^2 CFU/ml | 1.56 | 1.56 (≈ 3.86 µM) | 0 | 0.2 (≈ 0.494 µM) | – |
| CCC(C#N)=C1CCN(c2ccc(N3C[C@H](CNC(=O)C(Cl)Cl)OC3=O)cc2F)CC1 [Example 90, (S)-N-{3-[4-(4-(1-cyanopropylidene)-piperidin-1-yl)-3-fluorophenyl]-2-oxo-oxazolidin-5-ylmethyl}-dichloroacetamide] | 12.5 (≈ 26.6 µM) | 0.8 (≈ 1.7 µM) | 6.25 (≈ 13.3 µM) | – | – | 3.12 (≈ 6.65 µM) | 0 | 0.4 (≈ 0.852 µM) | – |

— US7405228B2, “Antibacterial cyano-(substituted)-methylenepiperidinophenyl oxazolidinones targeting multiple ribonucleoprotein sites” (Wockhardt Limited, priority 2002, dated 2008)
